This passage reports IC50 and inhibition results from US7977477B2, “Benzimidazole derivatives and their use as protein kinase inhibitors” (Astex Therapeutics, Limited, priority 2003, dated 2011).

One test deals with T1, CDK2/CyclinA (Homo sapiens, UniProt P24941).
T1 construct: purchased Upstate Biotechnology
The test can be described thus: CDK2 kinase inhibitory activity (Example 306, Protocol A or B). The format is biochemical. Particulars: for IC50: protocol of Example 306, read-out: IC50 (CDK inhibitory activity); for inhibition at 0.003 µM: read-out: % inhibition (CDK inhibitory activity). As for the experimental part: Compounds of the invention were tested for kinase inhibitory activity using either Protocol A or Protocol B.
1.7 μl of active CDK2/CyclinA (Upstate Biotechnology, 10 U/μl) is diluted in assay buffer (250 μl of 10× strength assay buffer (200 mM MOPS pH 7.2, 250 mM β-glycerophosphate, 50 mM EDTA, 150 mM MgCl2), 11.27 μl 10 mM ATP, 2.5 μl 1M DTT, 25 μl 100 mM sodium orthovanadate, 708.53 μl H2O), and 10 μl mixed with 10 μl of histone substrate mix (60 μl bovine histone H1 (Upstate Biotechnology, 5 mg/ml), 940 μl H2O, 35 μCi γ^33P-ATP) and added to 96 well plates along with 5 μl of various dilutions of the test compound in DMSO (up to 2.5%). The reaction is allowed to proceed for 5 hours before being stopped with an excess of ortho-phosphoric acid (30 μl at 2%).
γ^33P-ATP which remains unincorporated into the histone H1 is separated from phosphorylated histone H1 on a Millipore MAPH filter plate. The wells of the MAPH plate are wetted with 0.5% orthophosphoric acid, and then the results of the reaction are filtered with a Millipore vacuum filtration unit through the wells. Following filtration, the residue is washed twice with 200 μl of 0.5% orthophosphoric acid. Once the filters have dried, 25 μl of Microscint 20 scintillant is added, and then counted on a Packard Topcount for 30 seconds.
The % inhibition of the CDK2 activity is calculated and plotted in order to determine the concentration of test compound required to inhibit 50% of the CDK2 activity (IC50).
Activated CDK2/CyclinA (Brown et al, Nat. Cell Biol., 1, pp 438-443, 1999; Lowe, E. D., et al Biochemistry, 41, pp 15625-15634, 2002) is diluted to 125 pM in 2.5× strength assay buffer (50 mM MOPS pH 7.2, 62.5 mM O-glycerophosphate, 12.5 mM EDTA, 37.5 mM MgCl2, […], 2.5 mM DTT, 2.5 mM sodium orthovanadate, 0.25 mg/ml bovine serum albumin), and 10 fi mixed with 10 A1 of histone substrate mix (60 μl bovine histone H1 (Upstate Biotechnology, 5 mg/ml), 940 μl H2O, 35 μCi γ^33P-ATP) and added to 96 well plates along with 5 μl of various dilutions of the test compound in DMSO (up to 2.5%). The reaction is allowed to proceed for 2 to 4 hours before being stopped with an excess of ortho-phosphoric acid (5 μl at 2%).
γ^33P-ATP which remains unincorporated into the histone H1 is separated from phosphorylated histone H1 on a Millipore MAPH filter plate. The wells of the MAPH plate are wetted with 0.5% orthophosphoric acid, and then the results of the reaction are filtered with a Millipore vacuum filtration unit through the wells. Following filtration, the residue is washed twice with 200 μl of 0.5% orthophosphoric acid. Once the filters have dried, 20 μl of Microscint 20 scintillant is added, and then counted on a Packard Topcount for 30 seconds.

The subject of another test is HCT-116 cell line. Kind of test: Anti-proliferative activity, inhibition of cell growth (Alamar Blue assay). The format is cell-based. Particulars: Homo sapiens, 72 hours with compound. As for the experimental part:
The anti-proliferative activity of the compounds of the invention has been determined by measuring inhibition of cell growth in the HCT-116 cell line.
The anti-proliferative activities of compounds of the invention were determined by measuring the ability of the compounds to inhibition of cell growth in a number of cell lines. Inhibition of cell growth was measured using the Alamar Blue assay (Nociari, M. M, Shalev, A., Benias, P., Russo, C. Journal of Immunological Methods 1998, 213, 157-167). The method is based on the ability of viable cells to reduce resazurin to its fluorescent product resorufin. For each proliferation assay cells were plated onto 96 well plates and allowed to recover for 16 hours prior to the addition of inhibitor compounds for a further 72 hours. At the end of the incubation period 10% (v/v) Alamar Blue was added and incubated for a further 6 hours prior to determination of fluorescent product at […]. In the case of the non-proliferating cell assay cells were maintained at confluence for 96 hour prior to the addition of inhibitor compounds for a further 72 hours. The number of viable cells was determined by Alamar Blue assay as before. All cell lines were obtained from ECACC (European Collection of cell Cultures).
(Alamar Blue is a resazurin reagent that responds to reducing activity.)

The target of another test is CDK1/cyclinB (Homo sapiens, UniProt P06493). Kind of test: CDK selectivity assay, CDK1. The format is biochemical. Particulars: read-out: IC50 against CDK 1. As for the experimental part:
(§1) Compounds of the invention were tested for kinase inhibitory activity against a number of different kinases using the general protocol described in Example 129, but modified as set out below.
(§2) Kinases are diluted to a 10× working stock in 20 mM MOPS pH 7.0, 1 mM EDTA, 0.1% γ-mercaptoethanol, 0.01% Brij-35, 5% glycerol, 1 mg/ml BSA. One unit equals the incorporation of 1 nmol of phosphate per minute into 0.1 mg/ml histone H1, or CDK7 substrate peptide at […] with a final ATP concentration of 100 uM.
(§3) The substrate for all the CDK assays (except CDK7) is histone H1, diluted to 10× working stock in 20 mM MOPS pH 7.4 prior to use. The substrate for CDK7 is a specific peptide diluted to 10× working stock in deionised water.
(§4) Assay Procedure for CDK1/cyclinB, CDK2/cyclinA. CDK2/cyclinE, CDK3/cyclinE, CDK5/p35. CDK6/cyclinD3:
(§5) In a final reaction volume of 25 μl, the enzyme (5-10 mU) is incubated with 8 mM MOPS pH 7.0, 0.2 mM EDTA, 0.1 mg/ml histone H1, 10 mM MgAcetate and [γ-^33P-ATP] (specific activity approx 500 cpm/pmol, concentration as required). The reaction is initiated by the addition of Mg^2+ [γ-^33P-ATP]. After incubation for 40 minutes at room temperature the reaction is stopped by the addition of 5 μl of a 3% phosphoric acid solution. 10 ml of the reaction is spotted onto a P30 filter mat and washed 3 times for 5 minutes in 75 mM phosphoric acid and once in methanol prior to drying and counting.

The target in another test is GSK3β (human) (Homo sapiens, UniProt P49841). Kind of test: Inhibitory activity against glycogen synthase kinase-3 (GSK-3). Conditions: read-out: IC50 against GSK30. In kind it is biochemical. As for the experimental part:
GSK3β (human) is diluted to a 10× working stock in 50 mM Tris pH 7.5, 0.1 mM EGTA, 0.1 mM sodium vanadate, 0.1% β-mercaptoethanol, 1 mg/ml BSA. One unit equals the incorporation of 1 nmol of phosphate per minute phospho-glycogen synthase peptide 2 per minute.
as §5, with “GSK3β” for “the enzyme”, “MOPS” for “MOPS pH”, “20 μM […](p)EDEEE (phospho GS2 peptide),” for “0.1 mg/ml histone H1,”, “Mg^2+[γ-^33P-ATP].” for “Mg^2+ [γ-^33P-ATP].”, “μl” for “ml”, “50” for “75”

The target of another test is CDK5/p35 (Homo sapiens, UniProt Q00535). Kind of test: CDK selectivity assay, CDK5. In kind it is biochemical. Conditions: read-out: IC50 against CDK 5. As for the experimental part:
as §1, §2, §3, §4, §5

For a further test, the target named is CDK3/cyclinE (Homo sapiens, UniProt Q00526). The test can be described thus: CDK selectivity assay, CDK3. The format is biochemical. Conditions: read-out: IC50 against CDK 3. On the procedure:
as §1, §2, §3, §4, §5

A value given as a limit tells only on which side of the number the result lay.

Broadly, the IC50 is the point on the concentration scale where inhibition reaches its midpoint. A word on the inhibition: it is the share of the control response that was lost under treatment.

Sequence of CDK5/p35 (Q00535 whole entry): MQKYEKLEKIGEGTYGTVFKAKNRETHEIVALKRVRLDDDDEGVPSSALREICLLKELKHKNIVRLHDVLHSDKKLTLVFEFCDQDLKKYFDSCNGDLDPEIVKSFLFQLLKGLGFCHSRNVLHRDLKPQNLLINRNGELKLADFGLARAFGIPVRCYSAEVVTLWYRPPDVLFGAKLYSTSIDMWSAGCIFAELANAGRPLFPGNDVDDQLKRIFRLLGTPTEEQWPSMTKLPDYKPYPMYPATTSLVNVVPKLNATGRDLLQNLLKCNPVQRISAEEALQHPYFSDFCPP
Sequence of CDK5/p35 (Q15078 whole entry partner): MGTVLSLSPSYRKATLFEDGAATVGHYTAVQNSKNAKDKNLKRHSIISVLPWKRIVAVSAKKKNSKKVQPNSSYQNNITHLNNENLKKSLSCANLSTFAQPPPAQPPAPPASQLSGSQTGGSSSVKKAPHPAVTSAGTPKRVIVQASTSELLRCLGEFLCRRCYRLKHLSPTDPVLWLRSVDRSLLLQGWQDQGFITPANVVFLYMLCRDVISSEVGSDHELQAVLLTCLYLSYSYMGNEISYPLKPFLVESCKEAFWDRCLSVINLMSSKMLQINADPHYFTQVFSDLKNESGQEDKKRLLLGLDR
Sequence of CDK1/cyclinB (P06493 whole entry): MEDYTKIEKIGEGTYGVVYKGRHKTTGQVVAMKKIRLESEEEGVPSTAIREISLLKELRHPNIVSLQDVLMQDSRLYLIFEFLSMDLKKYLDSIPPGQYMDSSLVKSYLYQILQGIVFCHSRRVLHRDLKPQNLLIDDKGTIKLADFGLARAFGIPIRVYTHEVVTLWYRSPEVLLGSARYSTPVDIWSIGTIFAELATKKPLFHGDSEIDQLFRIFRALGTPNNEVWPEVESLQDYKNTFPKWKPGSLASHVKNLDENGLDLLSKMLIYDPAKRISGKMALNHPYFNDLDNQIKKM
Sequence of CDK1/cyclinB (P14635 whole entry partner): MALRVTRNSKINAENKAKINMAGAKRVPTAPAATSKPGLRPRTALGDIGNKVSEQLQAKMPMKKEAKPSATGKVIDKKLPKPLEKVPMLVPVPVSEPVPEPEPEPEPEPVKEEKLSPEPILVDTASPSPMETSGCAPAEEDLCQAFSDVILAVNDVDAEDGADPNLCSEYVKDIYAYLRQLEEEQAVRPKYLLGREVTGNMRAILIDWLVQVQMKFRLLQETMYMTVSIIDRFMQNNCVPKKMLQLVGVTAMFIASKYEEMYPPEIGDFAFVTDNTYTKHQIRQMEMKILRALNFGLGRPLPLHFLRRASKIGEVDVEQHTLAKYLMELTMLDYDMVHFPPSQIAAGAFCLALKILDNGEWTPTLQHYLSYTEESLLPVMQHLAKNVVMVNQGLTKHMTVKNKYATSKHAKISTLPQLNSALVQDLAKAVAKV
Sequence of CDK3/cyclinE (Q00526 whole entry): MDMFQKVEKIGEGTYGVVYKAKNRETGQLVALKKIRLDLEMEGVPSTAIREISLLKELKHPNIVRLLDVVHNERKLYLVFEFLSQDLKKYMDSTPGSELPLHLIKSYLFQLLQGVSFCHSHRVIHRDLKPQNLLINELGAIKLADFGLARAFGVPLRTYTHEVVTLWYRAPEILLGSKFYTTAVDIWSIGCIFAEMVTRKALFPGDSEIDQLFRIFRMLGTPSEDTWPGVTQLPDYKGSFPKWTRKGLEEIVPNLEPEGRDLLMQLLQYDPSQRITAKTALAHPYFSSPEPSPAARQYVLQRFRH
Sequence of CDK3/cyclinE (P24864 whole entry partner): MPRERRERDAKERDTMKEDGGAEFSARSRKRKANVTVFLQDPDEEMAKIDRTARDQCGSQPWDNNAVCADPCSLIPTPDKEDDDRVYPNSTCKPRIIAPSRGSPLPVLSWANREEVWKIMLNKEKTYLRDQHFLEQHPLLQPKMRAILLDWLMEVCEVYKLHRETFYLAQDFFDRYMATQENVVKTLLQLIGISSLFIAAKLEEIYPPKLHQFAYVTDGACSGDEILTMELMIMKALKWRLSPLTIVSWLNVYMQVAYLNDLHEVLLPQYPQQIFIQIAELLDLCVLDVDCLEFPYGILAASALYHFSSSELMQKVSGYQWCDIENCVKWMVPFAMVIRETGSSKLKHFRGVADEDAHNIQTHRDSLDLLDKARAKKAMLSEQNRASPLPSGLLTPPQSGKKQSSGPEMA
Sequence of GSK3β (human) (P49841 whole entry): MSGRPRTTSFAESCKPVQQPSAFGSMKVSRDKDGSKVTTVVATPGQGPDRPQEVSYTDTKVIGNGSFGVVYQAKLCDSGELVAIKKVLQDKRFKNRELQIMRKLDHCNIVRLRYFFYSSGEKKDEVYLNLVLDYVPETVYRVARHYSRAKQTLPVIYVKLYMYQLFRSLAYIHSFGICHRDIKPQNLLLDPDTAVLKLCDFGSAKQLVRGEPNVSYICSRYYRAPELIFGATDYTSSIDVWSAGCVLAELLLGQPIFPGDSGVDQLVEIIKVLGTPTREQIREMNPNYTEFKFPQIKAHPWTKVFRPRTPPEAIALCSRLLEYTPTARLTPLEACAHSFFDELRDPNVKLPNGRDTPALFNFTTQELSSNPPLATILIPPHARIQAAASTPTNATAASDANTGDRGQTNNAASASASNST

For the molecule `O=C(Nc1c[nH]nc1-c1nc2ccccc2[nH]1)c1ccccc1` [Compound A, reference compound], the 50% inhibitory concentration (IC50) on CDK2/CyclinA came out at 96.7 nM.

In the case of `Cc1ccc(C(=O)Nc2c[nH]nc2-c2nc3cc(C)c(C)cc3[nH]2)cc1` [Compound B, reference compound], the figures for the IC50 in the test with HCT-116 cell line and at CDK2/CyclinA were 5700 nM and 3000 nM, respectively.

For `O=C(Nc1c[nH]nc1-c1nc2ccccc2[nH]1)c1c(F)cccc1F` [Example 6, N-[3-(1H-Benzimidazol-2-yl)-1H-pyrazol-4-yl]-2,6-difluoro-benzamide], the concentration for half-maximal inhibition (IC50) at CDK1/cyclinB was < 1000 nM; on GSK3β (human), < 1000 nM; on CDK2/CyclinA, 4.8 nM; at CDK5/p35, < 1000 nM; on CDK3/cyclinE, < 1000 nM.

Take `O=C(Nc1c[nH]nc1-c1nc2c(CN3CCOCC3)cccc2[nH]1)c1c(F)cccc1F` [Example 12, 2,6-Difluoro-N-[3-(4-morpholin-4-yl-methyl-1H-benzimidazol-2-yl)-1H-pyrazol-4-yl]-benzamide]: the concentration for half-maximal inhibition (IC50) on CDK1/cyclinB, at GSK3β (human), at CDK5/p35 and at CDK3/cyclinE was < 1000 nM each time.

Regarding `CN1CCN(Cc2cccc3[nH]c(-c4n[nH]cc4NC(=O)c4c(F)cccc4F)nc23)CC1` [Example 13, 2,6-Difluoro-N-[3-(N-methyl-piperazinyl-4-ylmethyl-1H-benzimidazol-2-yl)-1H-pyrazol-4-yl]-benzamide], the IC50 on CDK1/cyclinB, at CDK5/p35 and on CDK3/cyclinE was < 1000 nM in each case.

With `CC(C)(C)NCc1cccc2[nH]c(-c3n[nH]cc3NC(=O)c3c(F)cccc3F)nc12` [Example 14, N-{3-[4-(tert-Butylamino-methyl)-1H-benzimidazol-2-yl]-1H-pyrazol-4-yl}-2,6-difluoro-benzamide], the IC50 on CDK1/cyclinB, on CDK5/p35 and at CDK3/cyclinE was < 1000 nM in each case.

Take `CN1CCN(C(=O)c2ccc3[nH]c(-c4n[nH]cc4NC(=O)c4c(F)cccc4F)nc3c2)CC1` [Example 21, 2,6-Difluoro-N-{3-[5-(4-methyl-piperazine-1-carbonyl)-1H-benzimidazol-2-yl]-1H-pyrazol-4-yl}-benzamide]: the IC50 at CDK1/cyclinB, at CDK5/p35 and at CDK3/cyclinE was < 1000 nM in each case.

On to `COc1cc(F)c(C(=O)Nc2c[nH]nc2-c2nc3ccccc3[nH]2)c(F)c1` [Example 41], for which the IC50 at CDK1/cyclinB, on CDK5/p35 and at CDK3/cyclinE was < 1000 nM in each case.

As to `O=C(Nc1c[nH]nc1-c1nc2ccccc2[nH]1)c1c(F)cccc1Cl` [Example 43], the inhibition at 0.003 µM at CDK2/CyclinA was found to be 52%.

In the case of `COc1cccc(F)c1C(=O)Nc1c[nH]nc1-c1nc2ccccc2[nH]1` [Example 44], the inhibition at 0.003 µM on CDK2/CyclinA came to 57%.

In the case of `O=C(Nc1c[nH]nc1-c1nc2ccccc2[nH]1)c1c(F)cc(F)cc1F` [Example 56], the inhibition at 0.003 µM on CDK2/CyclinA turned out to be 58%.

As for `Cc1cccc(Cl)c1C(=O)Nc1c[nH]nc1-c1nc2ccccc2[nH]1` [Example 57], the inhibition at 0.003 µM on CDK2/CyclinA was 41%.

For the molecule `O=C(Nc1c[nH]nc1-c1nc2ccccc2[nH]1)c1c(Cl)cccc1Cl` [Example 59], the inhibition at 0.003 µM on CDK2/CyclinA is 67%.

As to `Cc1cc2nc(-c3n[nH]cc3NC(=O)c3c(F)cccc3F)[nH]c2cc1C` [Example 73], the results for the IC50 in the test on HCT-116 cell line and on CDK2/CyclinA were 490 nM and 4.6 nM, respectively.
